Results published in PubChem BioAssay AID1963421 (Molecular Pharmacology Branch, DTP, NCI, 2024).

Test system: 519858-162-T-J1-PDC complex spheroid growth, % test/control
Experiment: Anticancer human tumor 519858-162-T-J1-PDC patient-derived colon adenocarcinoma cell line growth inhibition [Asc]
Conditions: for IC50: curve of first compound; for viability, T/C: stronger effect = lower value
Outline: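 Tumor cells were grown as multicellular spheroids with stromal HUVEC and mesenchymal stem cells and treated singly or in combination. Concentrations fell in half-log steps from the clinical Cmax, or from 10 microM where none was known.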
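Note: seven day drug exposure begun three days after spheroid seeding.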
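Throughout, for viability, T/C: 100% = DMSO vehicle wells and lower values mean less viable spheroid.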

## NC(=O)C(=Cn1cnc(-c2cc(C(F)(F)F)cc(C(F)(F)F)c2)n1)c1cncnc1 + Cc1c(S(C)(=O)=O)c(-c2cc(F)cc(N3CCN(c4ccc(NS(=O)(=O)c5ccc(NC(CCN6CCC(C(=O)OCCCP(=O)(O)O)CC6)CSc6ccccc6)c(S(=O)(=O)C(F)(F)F)c5)cc4)CC3)c2)c(-c2ccc(Cl)cc2)n1C(C)C
Second compound 0.0316 µM
  IC50: > 300 nM
Second compound 0.1 µM
  IC50: > 300 nM
Second compound 0.316 µM
  IC50: > 300 nM
Second compound 1 µM
  IC50: > 300 nM
Second compound 3.16 µM
  IC50: > 300 nM
Second compound 10 µM
  IC50: > 300 nM
Second compound 0.0316 µM, first compound 0.000949 µM
  viability, T/C: 113%
Second compound 0.0316 µM, first compound 0.003 µM
  viability, T/C: 101%
Second compound 0.0316 µM, first compound 0.00949 µM
  viability, T/C: 87.4%
Second compound 0.0316 µM, first compound 0.03 µM
  viability, T/C: 66%
Second compound 0.0316 µM, first compound 0.0949 µM
  viability, T/C: 97.8%
Second compound 0.0316 µM, first compound 0.3 µM
  viability, T/C: 88.3%
Second compound 0.1 µM, first compound 0.000949 µM
  viability, T/C: 94.2%
Second compound 0.1 µM, first compound 0.003 µM
  viability, T/C: 89.1%
Second compound 0.1 µM, first compound 0.00949 µM
  viability, T/C: 93.7%
Second compound 0.1 µM, first compound 0.03 µM
  viability, T/C: 78.3%
Second compound 0.1 µM, first compound 0.0949 µM
  viability, T/C: 59.4%
Second compound 0.1 µM, first compound 0.3 µM
  viability, T/C: 98.2%
Second compound 0.316 µM, first compound 0.000949 µM
  viability, T/C: 97.4%
Second compound 0.316 µM, first compound 0.003 µM
  viability, T/C: 86%
Second compound 0.316 µM, first compound 0.00949 µM
  viability, T/C: 90.9%
Second compound 0.316 µM, first compound 0.03 µM
  viability, T/C: 60.7%
Second compound 0.316 µM, first compound 0.0949 µM
  viability, T/C: 82.7%
Second compound 0.316 µM, first compound 0.3 µM
  viability, T/C: 74.9%
Second compound 1 µM, first compound 0.000949 µM
  viability, T/C: 86.6%
Second compound 1 µM, first compound 0.003 µM
  viability, T/C: 122%
Second compound 1 µM, first compound 0.00949 µM
  viability, T/C: 65%
Second compound 1 µM, first compound 0.03 µM
  viability, T/C: 83.5%
Second compound 1 µM, first compound 0.0949 µM
  viability, T/C: 71.6%
Second compound 1 µM, first compound 0.3 µM
  viability, T/C: 71.5%
Second compound 3.16 µM, first compound 0.000949 µM
  viability, T/C: 79.8%
Second compound 3.16 µM, first compound 0.003 µM
  viability, T/C: 79.2%
Second compound 3.16 µM, first compound 0.00949 µM
  viability, T/C: 78.8%
Second compound 3.16 µM, first compound 0.03 µM
  viability, T/C: 50.3%
Second compound 3.16 µM, first compound 0.0949 µM
  viability, T/C: 54.6%
Second compound 3.16 µM, first compound 0.3 µM
  viability, T/C: 79.8%
Second compound 10 µM, first compound 0.000949 µM
  viability, T/C: 58.9%
Second compound 10 µM, first compound 0.003 µM
  viability, T/C: 59.7%
Second compound 10 µM, first compound 0.00949 µM
  viability, T/C: 71.2%
Second compound 10 µM, first compound 0.03 µM
  viability, T/C: 76.3%
Second compound 10 µM, first compound 0.0949 µM
  viability, T/C: 72.4%
Second compound 10 µM, first compound 0.3 µM
  viability, T/C: 60.1%

## NC1CCC(NC2CC2c2ccccc2)CC1 (centres undefined) + Cc1c(S(C)(=O)=O)c(-c2cc(F)cc(N3CCN(c4ccc(NS(=O)(=O)c5ccc(NC(CCN6CCC(C(=O)OCCCP(=O)(O)O)CC6)CSc6ccccc6)c(S(=O)(=O)C(F)(F)F)c5)cc4)CC3)c2)c(-c2ccc(Cl)cc2)n1C(C)C
Second compound 0.0316 µM
  IC50: > 100 nM
Second compound 0.1 µM
  IC50: > 100 nM
Second compound 0.316 µM
  IC50: > 100 nM
Second compound 1 µM
  IC50: > 100 nM
Second compound 3.16 µM
  IC50: > 100 nM
Second compound 10 µM
  IC50: > 100 nM
Second compound 0.0316 µM, first compound 0.000316 µM
  viability, T/C: 106%
Second compound 0.0316 µM, first compound 0.001 µM
  viability, T/C: 128%
Second compound 0.0316 µM, first compound 0.00316 µM
  viability, T/C: 116%
Second compound 0.0316 µM, first compound 0.01 µM
  viability, T/C: 137%
Second compound 0.0316 µM, first compound 0.0316 µM
  viability, T/C: 115%
Second compound 0.0316 µM, first compound 0.1 µM
  viability, T/C: 70.6%
Second compound 0.1 µM, first compound 0.000316 µM
  viability, T/C: 134%
Second compound 0.1 µM, first compound 0.001 µM
  viability, T/C: 122%
Second compound 0.1 µM, first compound 0.00316 µM
  viability, T/C: 92.7%
Second compound 0.1 µM, first compound 0.01 µM
  viability, T/C: 94.8%
Second compound 0.1 µM, first compound 0.0316 µM
  viability, T/C: 79.9%
Second compound 0.1 µM, first compound 0.1 µM
  viability, T/C: 98.3%
Second compound 0.316 µM, first compound 0.000316 µM
  viability, T/C: 65.3%
Second compound 0.316 µM, first compound 0.001 µM
  viability, T/C: 109%
Second compound 0.316 µM, first compound 0.00316 µM
  viability, T/C: 142%
Second compound 0.316 µM, first compound 0.01 µM
  viability, T/C: 94%
Second compound 0.316 µM, first compound 0.0316 µM
  viability, T/C: 85.5%
Second compound 0.316 µM, first compound 0.1 µM
  viability, T/C: 107%
Second compound 1 µM, first compound 0.000316 µM
  viability, T/C: 96.3%
Second compound 1 µM, first compound 0.001 µM
  viability, T/C: 74.7%
Second compound 1 µM, first compound 0.00316 µM
  viability, T/C: 99.4%
Second compound 1 µM, first compound 0.01 µM
  viability, T/C: 60.3%
Second compound 1 µM, first compound 0.0316 µM
  viability, T/C: 134%
Second compound 1 µM, first compound 0.1 µM
  viability, T/C: 77.9%
Second compound 3.16 µM, first compound 0.000316 µM
  viability, T/C: 72.6%
Second compound 3.16 µM, first compound 0.001 µM
  viability, T/C: 113%
Second compound 3.16 µM, first compound 0.00316 µM
  viability, T/C: 97.3%
Second compound 3.16 µM, first compound 0.01 µM
  viability, T/C: 83.6%
Second compound 3.16 µM, first compound 0.0316 µM
  viability, T/C: 115%
Second compound 3.16 µM, first compound 0.1 µM
  viability, T/C: 116%
Second compound 10 µM, first compound 0.000316 µM
  viability, T/C: 69.7%
Second compound 10 µM, first compound 0.001 µM
  viability, T/C: 79%
Second compound 10 µM, first compound 0.00316 µM
  viability, T/C: 60.6%
Second compound 10 µM, first compound 0.01 µM
  viability, T/C: 77.1%
Second compound 10 µM, first compound 0.0316 µM
  viability, T/C: 55.4%
Second compound 10 µM, first compound 0.1 µM
  viability, T/C: 69.9%
